Source: patent publication US9408859B2, “Pharmaceutical compositions useful for preventing and treating cancer” (Mitotech SA, priority 2007, dated 2016)
Values joined by “and” are separate entries in the source; they are usually repeats but may differ in a detail not shown here. Identical values can stand only once.

Columns and labels:
Type in all cases: in vivo, mouse
[1] = test system: Ehrlich's carcinoma; assay: Anti-tumoral effect on hypodermic Ehrlich's carcinoma; conditions: 0.5 nM/kg ip
Protocol: The experiment was performed according to the methods described in Example 2.
Injection of the preparation started 48 hours after transplantation and proceeded during 5, 10, 15, and 30 days. For tumor treatment efficiency, estimations of tumor volumes were evaluated many times after end of short courses or once after end of the 30-day course. […] The results were then statistically calculated using confidence intervals of mean values of compared values, difference stated reliable if p<0.05.

[2] = test system: Lung Lewis's carcinoma; assay: SkQ1 combined with doxorubicin on growth of lung Lewis's carcinoma; conditions: regime per group
Protocol: For development of oncological diseases joint therapy that combines SkQ1 and chemotherapy, a study on SkQ1 influence on single doxorubicin injection efficiency was performed (one of the mechanisms of the preparation is activation of oxidative processes in normal and cancerous cells). SkQ1 was introduced before, simultaneously, or after introduction of doxorubicin in maximum dose of 500 nM/kg (in order to block oxidative mechanism of doxorubicin influence).
Doxorubicin was applied before, after, and during the course of SkQ1.

[3] = test system: A-431 human skin cancer heteroxenografts; assay: Anti-tumoral activity on A-431 heteroxenografts (tumor volume, T/C, histology)
Protocol: Before administration, SkQ1 was diluted with sterile physiological saline up to 0.5 μM and 5.0 μM. The preparation was injected intraperitoneally as single doses of 5.0 nM/kg and 50.0 nM/kg, 0.2 ml/mouse.
(1973) 51:1417-1423. • Morphology: epithelial. • Cultivation method: monolayer. • Cultivation conditions: 10% bovine embryonal serum DMEM culture. • Procedure of seeding: cell removal using 0.25% trypsin, 0.02% versene (3:7), ratio of seeding 1:3 1:6, optimal density 2.04.0×10^4 cell per sm^2 cryopreservation media, 10% DMSO, 1.0×10^6 cells/ml per ampoule. • Viability after cryopreservation: 83% (trypan blue staining on zero passage) • Contamination control: no bacteria, fungi or micoplasma detected • Genetic identity control: karyological, enzymatic (LDH, G6PDH) analysis. • Karyology: 2n-46, chromosome variability limit 5777, chromosome modal number 6871 • Tumorigenicity: tumorigenic in HIV mice and in mice treated with antithymocyte serum. • Other features: large number of receptors to epidermal growth factor. • Application area: growth factors study, cell biology. • Collection: ATCC CRL 1555; ECACC 85090402; INC RAS.
A-431 cells were grown on RPMI-1640 medium that contained 10% calf serum and 1 mM glutamine. Cells were transferred to a flask at a ratio of 1:2 or 1:3 from full monolayer. The medium was changed every 2 to 3 days. A cultivated cell suspension was then used to engraft HIV mice.
The experiment was performed using HIV female mice Balb/c nude at the age 8 to 9.5 weeks. All mice were raised in GU RONC. Mice were managed in specialized virus-free chamber with sterile aeration, fed with sterile briquette food and water under normalized temperature condition and moisture.
Cells of A-431 cell line were hypodermically implanted only once in number 1.7-1×10^6 per mouse in 0.2 ml of RPMI-1640 nutrition medium.
Anti-tumoral effect estimation was carried out using common rate T/C (Treatment/Control), evaluated as a ratio of average tumor volumes in treated and control groups given in percents. Rate was taken evaluated using the following formula T/C %=[…],
where Vo and Vk are the mean volumes of tumor in treated and control groups thereof. Thus, in the control group, T/C=100%. Mean volume was evaluated using the following formula: Vm (mm^3)=axbxc. T/C≦42% was taken as a minimal efficiency criterion (Anticancer Drug Development Guide (1997) (ed. B. A. Teicher) Humana Press, Totowa, N.J., pp. 101-125). To analyze the speed of growth (standarcy value), a ratio of mean tumor relative to the first one taken was determined as follows.
Evaluation started after the appearance of a palpable tumor (9 days after implantation). After that multiple tumor volume evaluations were performed until the 20th day after transplantation. The first evaluation of treated groups was performed during treatment, and the next three evaluations were performed during 6 days after end of the treatment. Tumor evaluations were stopped on the 21st to the 24th day after the first mouse died in three experiments.
Mice were sacrificed by ether anesthesia overdose. An autopsy was performed, and tumors were then extracted and assayed histologically and immunohistochemically. Tumors were fixed in 10% formaldehyde and set into paraffin wax. Histological assays were carried out on tumor histological sections, stained with hematoxylin and eosin. The number of microvessels was examined by standard immunological method using antibodies to CD34 antigen. Presence of vessel mimicry was estimated by tumor section staining with Schiffs reagent.

[4] = test system: HCT116 p53+/+; assay: Growth of human large intestine carcinoma xenografts, wild type p53; conditions: SkQ1 in drinking water, 0.5-50 nM/kg/day, 4 weeks
Text: Two human large intestine carcinoma cell sub-lines that differ by p53 status—wild type cells (HCT116 p53+/+)) and cells with inactivated p53 (HCT116 p53−/−)) cell line cultivation see in Bunz et al. (1998) Science, 282:1497-1500; see model description in Sablina et al. (2003), J. Biol. Chem., 278:27362-27371. One million cells were hypodermically implanted into thymus-deprived mice. Mice in each group were divided into 4 sub-groups of 10 mice: one group received water to drink; one group received water with SkQ1 (0.01 nmol) per mouse per day (0.5 nM/kg/day); one group received water with SkQ1 (0.1 nmol) per mouse per day (5 nM/kg/day); one group received water with SkQ1 (1 nmol) per mouse per day (50 nM/kg/day).
The size of the tumors was evaluated every 3 days. After 4 weeks mice were sacrificed and the tumors removed and fixed for histological assay.

[5] = Experiment 1 material, Group 2, 5.0 nM/kg

CC1=C(C)C(=O)C(CCCCCCCCCC[P+](c2ccccc2)(c2ccccc2)c2ccccc2)=CC1=O [SkQ1] was tested, and the tumor volume ([1]; 5-day course, days 2-7, day 7 after transplantation) was 251 mm³, the TGS% ([1]; 5-day course, day 7) was 40% and the TGS% ([1]; 5-day course, day 14) was 23%. The tumor volume ([1]; 5-day course, day 14) was 547 mm³, the TGS% ([1]; 5-day course, day 21) was 16% and the tumor volume ([1]; 5-day course, day 21) was 1000 mm³. For the same compound, the tumor volume ([1]; 10-day course, days 2-13, day 7) was 228 mm³, the TGS% ([1]; 10-day course, day 7) was 45% and the TGS% ([1]; 10-day course, day 14) was 34%. The tumor volume ([1]; 10-day course, day 14) was 474 mm³, the TGS% ([1]; 10-day course, day 21) was 28% and the tumor volume ([1]; 10-day course, day 21) was 853 mm³. For the same compound, the tumor volume ([1]; 15-day course, days 2-16, day 7) was 259 mm³, the TGS% ([1]; 15-day course, day 7) was 38% and the TGS% ([1]; 15-day course, day 14) was 36%. The tumor volume ([1]; 15-day course, day 14) was 459 mm³, the TGS% ([1]; 15-day course, day 21) was 29% and the tumor volume ([1]; 15-day course, day 21) was 838 mm³. For the same compound, the “TGS %, by tumor volume” value ([2]; Day 7, SkQ 500 nmol 0.2 ml/mouse per os x5, DOX 7 mg/kg ip) was 33%, the “TGS %, by tumor volume” value ([2]; Day 7, SkQ 500 nmol 0.2 ml/mouse per os x5, DOX 7 mg/kg ip, listed as SkQ) was 33^ % and the “TGS %, by tumor volume” value ([2]; Day 10) was 42%. For the same compound, the “TGS %, by tumor volume” value ([2]; Day 14) was 48%, the “TGS %, by tumor volume” value ([2]; Day 17) was 28% and the “TGS %, by tumor volume” value ([2]; Day 21) was 30%. The T/C ([3]; Experiment 1, 5.0 nM/kg ip daily day 1-14, 14th day) was 74%, the T/C ([3]; Experiment 1, 5.0 nM/kg ip daily day 1-14, 17th day) was 67% and the T/C ([3]; Experiment 1, 5.0 nM/kg ip daily day 1-14, 20th day) was 73%. For the same compound, the T/C ([3]; Experiment 1, 5.0 nM/kg ip daily, 9th day (after 8 injections)) was 63%, the T/C ([3]; Experiment 1, 50.0 nM/kg ip daily day 1-14, 9th day) was 159% and the T/C ([3]; Experiment 1, 50.0 nM/kg ip daily day 1-14, 14th day) was 160%. For the same compound, the T/C ([3]; Experiment 1, 50.0 nM/kg ip daily day 1-14, 17th day) was 134%, the T/C ([3]; Experiment 1, 50.0 nM/kg ip daily day 1-14, 20th day) was 146% and the “Tumor differentiation (histological assay)” value ([3]; Experiment 1 material, 5.0 nM/kg, vs control) was “partial tumor differentiation”. For the same compound, the “Number of microvessels in tumors (CD34, hot spots)” value ([3]; Experiment 1 material, 23rd day, 9th day after end of treatment, three groups (control, 5.0 and 50.0 nM/kg)) was “did not statistically differ”, the Microvessel diameter [3, 5] was “smaller diameter than in the control group” and the “Signs of vasculogenic mimicry (PAS staining)” value [3, 5] was “no such signs were seen”. It also gave a T/C ([3]; Experiment 2, 5.0 nM/kg ip daily day 1-8, 8th day) of 61%, a T/C ([3]; Experiment 2, 5.0 nM/kg ip daily day 1-8, 14th day) of 72% and a T/C ([3]; Experiment 2, 5.0 nM/kg ip daily day 1-8, 17th day) of 96%. The T/C ([3]; Experiment 2, 5.0 nM/kg ip daily day 1-8, 24th day) was 101%, the T/C ([3]; Experiment 3, 5.0 nM/kg ip daily day 1-14, immediately after the end of the treatment) was 41% and 42% and the inhibition of growth ([3]; long-termed injection, single doses 5.0 nM/kg, in some cases) was 50%. For the same compound, the “Tumor growth vs control group receiving pure water” value [4] was “suppression of tumor growth”.
